Experimental data published in patent US11298422B2, “Treating tumors with TTFields and an aurora kinase inhibitor” (Novocure Limited, priority 2018, dated 2022).

Tests used:
[1] = test system: primary glioblastoma cell line HT12347; assay: Normalized cell count, primary glioblastoma cells; format: cell-based; conditions: primary glioblastoma cell-lines, compared to each treatment alone; Mann-Whitney-U-test, p<0.01
Experimental: In addition to U87-MG cells, primary tumor-cell lines were established from glioblastoma tissue taken intraoperatively. TTFields (1.6 V/cm RMS, 200 kHz) were applied for 72 hours using the InovitroTM system. AZD1152 was added to the media in concentrations of up to 100 nmol/l. Cell counts, cell cycle and clonogenic potential were determined at the end of treatment. Primary tumor-cell-lines were analyzed. In addition, MLN8237, an Aurora A kinase inhibitor, was tested in concentrations up to 50 nmol/l for the treatment of U87-MG and primary tumor-cell lines to further establish Aurora kinase inhibition as a target for combination therapy with TTFields. […] FIGS. 5A and 5B show the normalized cell counts after treatment with TTFields and AZD1152, alone and in combination, on U87-MG (FIG. 5A) and primary glioblastoma cell line HT12347 (FIG. 5B) at the indicated AZD1152 concentration and […] frequency. The exemplary box plots show the normalized cell count after treatment with AZD1152 alone, TTFields alone, and combination of AZD1152 and TTFields. “***” marks significant differences where p<0.001. […] FIGS. 8A-8B show the normalized cell counts after treatment with TTFields and MLN8237, alone and in combination, on U87-MG (FIG. 8A) and primary glioblastoma cell line HT12347 (FIG. 8B). […]

[2] = test system: primary glioblastoma cell line HT12347; assay: Light microscopy, primary glioblastoma cells; format: cell-based; conditions: HT12347, TTFields and MLN8237 combination vs control and each alone (FIGS. 10A-10D)
Experimental: Cells were treated with control, AZD1152, TTFields, or a combination of both. […] FIGS. 10A-10D show exemplary light microscopy images of primary glioblastoma cells HT12347 after the following treatment: 10A: control; 10B: after […] treatment; 10C: after treatment with MLN8237 alone; 10D: after treatment with TTFields and MLN8237.

[3] = test system: glioblastoma cell line HT 12347; assay: PI (propium iodide) staining of DNA content, primary glioblastoma cells; format: cell-based; conditions: HT 12347, TTFields combined with MLN8237 (FIGS. 9A-9E)
Description: FIGS. 9A-9E show exemplary PI (propium iodide) staining results showing DNA content after treatment with TTFields alone, […] alone, and in combination in glioblastoma cell line HT 12347 with corresponding cell cycle histograms. FIG. 9A is a summary, with 2n in light gray, 4n in dark gray, and r>4n in black; FIG. 9B is a cell cycle histogram for the control; FIG. 9C is a cell cycle histogram for […] treatment alone; FIG. 9D is a cell cycle histogram for MLN8237 alone; and FIG. 9E is a cell cycle histogram for TTFields combined with MLN8237.

[4] = test system: U87-MG; assay: Normalized cell count, U87-MG (additional study); format: cell-based, human; conditions: compared to each treatment alone, Mann-Whitney-U-test, p<0.01
Experimental: In addition to U87-MG cells, primary tumor-cell lines were established from glioblastoma tissue taken intraoperatively. TTFields (1.6 V/cm RMS, 200 kHz) were applied for 72 hours using the Inovitro™ system. AZD1152 was added to the media in concentrations of up to 100 nmol/l. Cell counts, cell cycle and clonogenic potential were determined at the end of treatment. Primary tumor-cell-lines were analyzed. In addition, MLN8237, an Aurora A kinase inhibitor, was tested in concentrations up to 50 nmol/l for the treatment of U87-MG and primary tumor-cell lines to further establish Aurora kinase inhibition as a target for combination therapy with TTFields. […] FIGS. 8A-8B show the normalized cell counts after treatment with TTFields and MLN8237, alone and in combination, on U87-MG (FIG. 8A) and primary glioblastoma cell line HT12347 (FIG. 8B). The exemplary box plots show the normalized cell count after treatment with TTFields alone, MLN8237 alone, and combination of MLN8237 and TTFields in U87 cells ([…]), and in HT12347 glioblastoma cells (FIG. 8B). The greatest reduction in the percentage of living cells in relation to the control is shown with the combination of TTFields and MLN8237.

COc1cc(Nc2ncc3c(n2)-c2ccc(Cl)cc2C(c2c(F)cccc2OC)=NC3)ccc1C(=O)O [MLN8237, Alisertib]
cell numbers after combined treatment of MLN8237 and TTFields [1]: significant decrease of cell numbers | number of cells in light microscopy images [2]: lowest number of cells | multinuclear and polyploid cells (PI staining, DNA content) [3]: higher number of multinuclear and polyploid cells | cell numbers after combined treatment of MLN8237 and TTFields [4]: significant decrease of cell numbers
